Experimental data reported in PubChem BioAssay (NCI).
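Five compound concentrations were applied to cells in 96-well plates for 48 hours; endpoints were derived by simple linear interpolation of the resulting dose-response curve. GI50 is the concentration that inhibits growth by half. The concentration for full growth arrest is given as TGI.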

Tests used:
Assay in all cases: NCI-60 cell line screen, 48 h
IGROV1 ovarian = tested on: IGROV1 ovarian
HOP-62 NSCLC = tested on: HOP-62 NSCLC
HCC-2998 colon = tested on: HCC-2998 colon
SR leukemia = tested on: SR leukemia
OVCAR-5 ovarian = tested on: OVCAR-5 ovarian
SF-268 CNS = tested on: SF-268 CNS
HCT-116 colon = tested on: HCT-116 colon
ACHN renal = tested on: ACHN renal
SK-MEL-2 melanoma = tested on: SK-MEL-2 melanoma
LOX IMVI melanoma = tested on: LOX IMVI melanoma

Compound: Nc1c(C(=O)c2ccccc2)sc2nc(-c3cccs3)ccc12
- GI50 (IGROV1 ovarian): 1.21 µM
- TGI (IGROV1 ovarian): 18.8 µM
- GI50 (HOP-62 NSCLC): 0.276 µM
- TGI (HOP-62 NSCLC): 17.8 µM
- GI50 (HCC-2998 colon): 0.468 µM
- TGI (HCC-2998 colon): 4.25 µM
- GI50 (SR leukemia): 0.0668 µM
- TGI (SR leukemia): 4.16 µM
- GI50 (OVCAR-5 ovarian): 1.8 µM
- TGI (OVCAR-5 ovarian): 14.5 µM
- GI50 (SF-268 CNS): 0.664 µM
- TGI (SF-268 CNS): 15.5 µM
- GI50 (HCT-116 colon): 0.0533 µM
- TGI (HCT-116 colon): 1.96 µM
- GI50 (ACHN renal): 0.863 µM
- TGI (ACHN renal): 13.3 µM
- GI50 (SK-MEL-2 melanoma): 0.252 µM
- TGI (SK-MEL-2 melanoma): 17.8 µM
- GI50 (LOX IMVI melanoma): 0.378 µM
- TGI (LOX IMVI melanoma): 15.3 µM

Compound: CCCCCCNC(=O)C1=C(C)NC(C)=C(C(=O)NCCCCCC)C1
- TGI (IGROV1 ovarian): > 100 µM
- TGI (HOP-62 NSCLC): > 100 µM
- TGI (HCC-2998 colon): > 100 µM
- TGI (SR leukemia): > 100 µM
- TGI (OVCAR-5 ovarian): > 100 µM
- TGI (SF-268 CNS): > 100 µM
- TGI (HCT-116 colon): > 100 µM
- TGI (ACHN renal): > 100 µM
- TGI (SK-MEL-2 melanoma): > 100 µM
- TGI (LOX IMVI melanoma): > 100 µM

Compound: COC1=CC23C=CC1[C@@H](c1ccccc1)C2=C(C)C(=O)N3C(=O)NC1CCCCC1 (stereo not given in full)
- TGI (IGROV1 ovarian): > 100 µM
- TGI (HOP-62 NSCLC): 50.2 µM
- TGI (HCC-2998 colon): 52 µM
- TGI (SR leukemia): 56.8 µM
- TGI (OVCAR-5 ovarian): 68.2 µM
- TGI (SF-268 CNS): 33.6 µM
- TGI (HCT-116 colon): 28.3 µM
- TGI (ACHN renal): > 100 µM
- TGI (SK-MEL-2 melanoma): 39.5 µM
- TGI (LOX IMVI melanoma): 31.2 µM

Compound: COc1cc(/C=C/c2cc(C(F)(F)F)[nH]c(=O)n2)ccc1OCc1ccccc1F
- GI50 (IGROV1 ovarian): 12.4 µM
- TGI (IGROV1 ovarian): 42 µM
- GI50 (HOP-62 NSCLC): 10.3 µM
- TGI (HOP-62 NSCLC): 25 µM
- GI50 (HCC-2998 colon): 15.5 µM
- TGI (HCC-2998 colon): 30.1 µM
- GI50 (SR leukemia): 4.17 µM
- TGI (SR leukemia): 43.3 µM
- GI50 (OVCAR-5 ovarian): 16.5 µM
- TGI (OVCAR-5 ovarian): 30.9 µM
- GI50 (SF-268 CNS): 17.9 µM
- TGI (SF-268 CNS): > 100 µM
- GI50 (HCT-116 colon): 7.12 µM
- TGI (HCT-116 colon): 19.6 µM
- GI50 (ACHN renal): 12.7 µM
- TGI (ACHN renal): 38.7 µM
- GI50 (SK-MEL-2 melanoma): 12.1 µM
- TGI (SK-MEL-2 melanoma): 28.2 µM
- GI50 (LOX IMVI melanoma): 8.57 µM
- TGI (LOX IMVI melanoma): 22 µM

Compound: Cc1nn(C(=O)c2ccccc2O)c2c1C(c1ccccc1)SC(N)=N2 (stereo not given)
- TGI (IGROV1 ovarian): 6.96 µM
- TGI (HOP-62 NSCLC): > 10 µM
- TGI (HCC-2998 colon): > 10 µM
- TGI (SR leukemia): 6.49 µM
- TGI (OVCAR-5 ovarian): > 10 µM
- TGI (SF-268 CNS): > 10 µM
- TGI (HCT-116 colon): > 10 µM
- TGI (ACHN renal): > 10 µM
- TGI (SK-MEL-2 melanoma): > 10 µM
- TGI (LOX IMVI melanoma): > 10 µM

Compound: CCCCC#COP(=O)(OCC)OCC
- TGI (IGROV1 ovarian): > 100 µM
- TGI (HOP-62 NSCLC): > 100 µM
- TGI (HCC-2998 colon): > 100 µM
- TGI (SR leukemia): > 100 µM
- TGI (OVCAR-5 ovarian): > 100 µM
- TGI (SF-268 CNS): > 100 µM
- TGI (HCT-116 colon): > 100 µM
- TGI (ACHN renal): > 100 µM
- TGI (SK-MEL-2 melanoma): > 100 µM
- TGI (LOX IMVI melanoma): > 100 µM

Compound: C=CC(=O)N1CCCC(n2nc(-c3ccc(Oc4ccccc4)cc3)c3c(N)ncnc32)C1 (stereo not given)
- GI50 (IGROV1 ovarian): 0.643 µM
- TGI (IGROV1 ovarian): 14.6 µM
- GI50 (HOP-62 NSCLC): 12.9 µM
- TGI (HOP-62 NSCLC): 26.1 µM
- GI50 (HCC-2998 colon): 16 µM
- TGI (HCC-2998 colon): 30.8 µM
- GI50 (SR leukemia): 9.28 µM
- TGI (SR leukemia): 34.1 µM
- GI50 (OVCAR-5 ovarian): 13.1 µM
- TGI (OVCAR-5 ovarian): 27.6 µM
- GI50 (SF-268 CNS): 3.12 µM
- TGI (SF-268 CNS): 17.2 µM
- GI50 (HCT-116 colon): 11.9 µM
- TGI (HCT-116 colon): 26.2 µM
- GI50 (ACHN renal): 0.248 µM
- TGI (ACHN renal): 15.8 µM
- GI50 (SK-MEL-2 melanoma): 16 µM
- TGI (SK-MEL-2 melanoma): 31.6 µM
- GI50 (LOX IMVI melanoma): 4.26 µM
- TGI (LOX IMVI melanoma): 19.1 µM

Compound: O=C(C(O)c1cn(Cc2ccccc2)c2ccccc12)N1CCCCC1 (stereo not given)
- TGI (IGROV1 ovarian): > 100 µM
- TGI (HOP-62 NSCLC): > 100 µM
- TGI (HCC-2998 colon): > 100 µM
- TGI (SR leukemia): > 100 µM
- TGI (OVCAR-5 ovarian): > 100 µM
- TGI (SF-268 CNS): > 100 µM
- TGI (HCT-116 colon): > 100 µM
- TGI (ACHN renal): > 100 µM
- TGI (SK-MEL-2 melanoma): > 100 µM
- TGI (LOX IMVI melanoma): > 100 µM

Compound: Cc1cc(/C=C2\SC(=Nc3ccccc3)N(C3CCCC3)C2=O)c(C)n1-c1ccc(Cl)cc1
- GI50 (IGROV1 ovarian): > 100 µM
- TGI (IGROV1 ovarian): > 100 µM
- GI50 (HOP-62 NSCLC): > 100 µM
- TGI (HOP-62 NSCLC): > 100 µM
- GI50 (HCC-2998 colon): > 100 µM
- TGI (HCC-2998 colon): > 100 µM
- GI50 (SR leukemia): > 100 µM
- TGI (SR leukemia): > 100 µM
- GI50 (OVCAR-5 ovarian): > 100 µM
- TGI (OVCAR-5 ovarian): > 100 µM
- GI50 (SF-268 CNS): > 100 µM
- TGI (SF-268 CNS): > 100 µM
- GI50 (HCT-116 colon): > 100 µM
- TGI (HCT-116 colon): > 100 µM
- GI50 (ACHN renal): > 100 µM
- TGI (ACHN renal): > 100 µM
- GI50 (SK-MEL-2 melanoma): > 100 µM
- TGI (SK-MEL-2 melanoma): > 100 µM
- GI50 (LOX IMVI melanoma): > 100 µM
- TGI (LOX IMVI melanoma): > 100 µM

Compound: NC(=O)c1c[se]c(C2OC(CO)C(O)C2O)n1 (stereo not given)
- TGI (IGROV1 ovarian): > 100 µM
- TGI (HOP-62 NSCLC): > 100 µM
- TGI (HCC-2998 colon): > 100 µM
- TGI (SR leukemia): > 100 µM
- TGI (OVCAR-5 ovarian): > 100 µM
- TGI (SF-268 CNS): > 100 µM
- TGI (HCT-116 colon): 55 µM
- TGI (ACHN renal): > 100 µM
- TGI (SK-MEL-2 melanoma): > 100 µM
- TGI (LOX IMVI melanoma): > 100 µM
